The nature of test [1]: Inhibitory activity against DNA topoisomerase I.
Test [2] addresses T1, Type-1 angiotensin II receptor (Oryctolagus cuniculus, UniProt P34976).
T1 sequence (P34976 whole entry): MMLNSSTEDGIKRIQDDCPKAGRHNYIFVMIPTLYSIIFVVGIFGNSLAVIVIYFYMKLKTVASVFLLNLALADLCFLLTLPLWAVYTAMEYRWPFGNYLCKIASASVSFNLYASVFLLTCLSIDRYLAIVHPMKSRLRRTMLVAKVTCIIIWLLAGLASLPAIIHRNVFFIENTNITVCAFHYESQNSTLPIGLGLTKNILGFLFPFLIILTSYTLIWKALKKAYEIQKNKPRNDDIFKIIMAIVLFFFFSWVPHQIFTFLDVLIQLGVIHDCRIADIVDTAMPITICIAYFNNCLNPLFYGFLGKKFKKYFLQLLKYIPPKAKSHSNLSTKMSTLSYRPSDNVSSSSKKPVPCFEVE
Description: Binding affinity to Angiotensin II receptor, type 1.

Test [3] has as its target Leukotriene B4 receptor 1 (Homo sapiens, UniProt Q15722). Description: Binding affinity to leukotriene B4 receptor.
Test [4] has as its target T2, Type-2 angiotensin II receptor (Rattus norvegicus, UniProt P35351).
T2 sequence (P35351 whole entry): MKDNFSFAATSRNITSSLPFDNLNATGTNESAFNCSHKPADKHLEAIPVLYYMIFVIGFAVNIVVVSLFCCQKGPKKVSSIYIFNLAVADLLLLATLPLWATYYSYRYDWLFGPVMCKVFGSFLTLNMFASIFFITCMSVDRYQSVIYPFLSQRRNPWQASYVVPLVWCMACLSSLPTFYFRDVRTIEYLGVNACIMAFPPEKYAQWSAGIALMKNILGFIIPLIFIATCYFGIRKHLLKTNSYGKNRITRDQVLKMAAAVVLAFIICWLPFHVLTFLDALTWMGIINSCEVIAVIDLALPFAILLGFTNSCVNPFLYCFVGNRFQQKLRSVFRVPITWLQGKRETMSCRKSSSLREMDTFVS
Kind of test: Binding affinity to Angiotensin II receptor, type 2.

In test [5] the target is T2, Type-2 angiotensin II receptor. Description: Inhibitory activity against Angiotensin II receptor, type 2 binding.
Test [6] addresses Prolyl endopeptidase (Sus scrofa, UniProt P23687). Kind of test: Inhibition of Prolyl endopeptidase activity. It is filed as functional.
Test [7] concerns the target Adenosine receptor A2a (Rattus norvegicus, UniProt P30543). Kind of test: Binding affinity to Adenosine A2A receptor.
Test [8] has as its target T3, Endothelin-1 receptor (Homo sapiens, UniProt P25101).
T3 sequence (P25101 whole entry): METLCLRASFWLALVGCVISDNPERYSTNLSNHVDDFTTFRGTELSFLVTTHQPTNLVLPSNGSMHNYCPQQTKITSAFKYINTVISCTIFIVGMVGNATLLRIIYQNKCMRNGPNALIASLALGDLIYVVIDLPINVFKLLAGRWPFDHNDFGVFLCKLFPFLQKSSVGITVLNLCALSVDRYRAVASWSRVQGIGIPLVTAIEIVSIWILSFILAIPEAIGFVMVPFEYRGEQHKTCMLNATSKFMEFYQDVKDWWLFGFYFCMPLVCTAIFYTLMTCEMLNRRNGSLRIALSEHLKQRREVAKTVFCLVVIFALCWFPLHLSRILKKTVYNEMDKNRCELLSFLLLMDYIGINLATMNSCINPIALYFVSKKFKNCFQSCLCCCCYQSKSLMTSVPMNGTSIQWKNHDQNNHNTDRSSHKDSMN
Description: Binding affinity to Endothelin A receptor.

For orientation: IC50 means the concentration that gives 50% inhibition. Higher therefore signals weaker potency in that assay. As a reminder, the Ki is the dissociation constant of the complex between target and ligand, obtained from inhibition or displacement.

Leukotriene B4 receptor 1, sequence (Q15722 whole entry): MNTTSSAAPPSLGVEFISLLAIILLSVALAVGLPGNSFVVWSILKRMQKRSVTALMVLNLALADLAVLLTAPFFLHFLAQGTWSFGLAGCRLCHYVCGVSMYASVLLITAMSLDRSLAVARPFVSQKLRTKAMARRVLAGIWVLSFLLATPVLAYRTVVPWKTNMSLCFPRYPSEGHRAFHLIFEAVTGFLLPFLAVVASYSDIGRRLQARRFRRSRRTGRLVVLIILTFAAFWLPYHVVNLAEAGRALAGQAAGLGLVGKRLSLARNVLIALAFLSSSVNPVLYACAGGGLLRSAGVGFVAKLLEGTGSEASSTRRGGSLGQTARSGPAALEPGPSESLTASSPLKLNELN
Adenosine receptor A2a, sequence (P30543 whole entry): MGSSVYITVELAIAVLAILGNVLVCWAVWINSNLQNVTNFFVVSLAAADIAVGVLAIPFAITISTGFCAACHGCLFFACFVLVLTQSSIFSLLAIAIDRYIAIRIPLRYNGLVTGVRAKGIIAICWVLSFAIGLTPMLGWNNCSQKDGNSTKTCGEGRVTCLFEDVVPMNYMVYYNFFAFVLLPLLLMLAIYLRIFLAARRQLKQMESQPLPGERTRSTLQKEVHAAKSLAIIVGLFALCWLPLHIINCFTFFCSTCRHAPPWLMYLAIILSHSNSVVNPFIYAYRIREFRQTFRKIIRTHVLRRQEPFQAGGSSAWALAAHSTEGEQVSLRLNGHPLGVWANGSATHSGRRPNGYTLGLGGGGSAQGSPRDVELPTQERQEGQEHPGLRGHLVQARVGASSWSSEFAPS
Prolyl endopeptidase, sequence (P23687 whole entry): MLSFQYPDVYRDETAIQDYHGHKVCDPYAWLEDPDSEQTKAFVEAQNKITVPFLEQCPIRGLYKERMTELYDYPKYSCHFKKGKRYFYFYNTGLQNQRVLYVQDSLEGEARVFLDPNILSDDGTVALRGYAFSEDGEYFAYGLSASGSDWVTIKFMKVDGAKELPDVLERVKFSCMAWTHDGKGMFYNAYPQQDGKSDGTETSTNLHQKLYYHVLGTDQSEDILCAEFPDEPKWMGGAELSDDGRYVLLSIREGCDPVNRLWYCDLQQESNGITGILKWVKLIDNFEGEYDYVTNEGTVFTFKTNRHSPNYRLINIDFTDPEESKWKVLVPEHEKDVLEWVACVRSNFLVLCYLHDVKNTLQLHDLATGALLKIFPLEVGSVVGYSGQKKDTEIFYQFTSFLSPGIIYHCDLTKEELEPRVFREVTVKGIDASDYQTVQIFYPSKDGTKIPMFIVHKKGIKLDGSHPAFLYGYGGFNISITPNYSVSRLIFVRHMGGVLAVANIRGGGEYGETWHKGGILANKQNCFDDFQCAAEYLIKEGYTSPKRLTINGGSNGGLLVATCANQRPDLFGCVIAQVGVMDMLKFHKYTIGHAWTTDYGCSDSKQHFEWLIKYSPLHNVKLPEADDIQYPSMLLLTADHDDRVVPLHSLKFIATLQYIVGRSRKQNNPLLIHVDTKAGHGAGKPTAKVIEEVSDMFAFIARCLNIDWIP

As to `CC[C@@]1(O)C(=O)OCc2c1cc1n(c2=O)Cc2c-1nc1cnc(Br)cc1c2C`, half-maximal inhibition in test [1] (IC50) required 28 nM. Same read-out and setting: as for `CC[C@@]1(O)C(=O)OCc2c1cc1n(c2=O)Cc2c-1nc1cnc(C#N)cc1c2C`, the figure is 143 nM. In test [2], `CCCCc1nn(-c2ccccc2C(F)(F)F)c(=O)n1Cc1ccc(-c2ccccc2-c2nnn[nH]2)cc1` returned an inhibition constant (Ki) of 1.2 nM. Take `CCCc1c(OCCCOc2ccc3c(c2CCC)O[C@@H](C(=O)O)CC3)ccc(C(C)=O)c1CO`: the affinity in test [3] corresponds to a Ki of 320 nM. In test [4], `CCCCc1nn(-c2ccccc2C(F)(F)F)c(=O)n1Cc1ccc(-c2ccccc2S(=O)(=O)NC(=O)OC(C)(C)C)cc1` had an inhibition constant Ki of 17 nM. In test [5], this compound came in with an IC50 of 0.45 nM. For `CCCCc1nn(-c2cccc([N+](=O)[O-])c2)c(=O)n1Cc1ccc(-c2ccccc2S(=O)(=O)NC(=O)c2ccccc2Cl)cc1`, the Ki in test [4] is 173 nM. Besides, in test [5], the IC50 turned out to be 31 nM. In test [6], `CCOC(=O)C(=O)[C@@H]1CCCN1C(=O)[C@@H]1CCCN1C(=O)CCCc1ccccc1` registered an IC50 of 10.3 nM. On to `CCCCc1nn(-c2ccccc2C(C)C)c(=O)n1Cc1ccc(-c2ccccc2-c2nn[nH]n2)cc1`, for which, in test [2], the Ki came out at 1.4 nM. On to `CCCc1c(OCCCOc2ccc(-c3cscn3)c(COC)c2CC2CC2)ccc2c1O[C@@H](C(=O)O)CC2`, for which the Ki in test [3] came out at 3.2 nM. The compound `CCNC(=O)[C@H]1C[C@@H](n2cnc3c(N)nc(C#Cc4nccs4)nc32)[C@H](OC)[C@@H]1OC` yielded a Ki in test [7] of 41.3 nM. In turn, `COc1ccc(CC2C(c3ccc(Cl)c(Cl)c3)C(=O)O[C@@]2(O)c2ccc(OC)cc2)cc1` (stereo partly drawn) displayed a Ki in test [8] of 170 nM.

These data come from ChEMBL document CHEMBL1133183, “Quantized surface complementarity diversity (QSCD): a model based on small molecule-target complementarity” (J Med Chem, 2000).
